We go through eleven compounds from patent US5175146A, “Synthetic calcitonin peptides” (Vical, Inc., priority 1990, dated 1992).

Starred links: 1 amine or outer side, 2 acyl side, 3 side chain; linkers in the order of their positions; H or OH if unused. Positions of bridges follow the written chain, without caps; N, C: chain ends. Residues, ends and D or L forms follow the SMILES beside them. Suc = O=C(CCC(=O)[*:2])[*:1]

On the set-up of data set [1]: species or system rabbits. To be noted: rabbit, in vivo. As to the method:
Peptides of the formula I when administered intranasally show hypocalcemic effects in animals. In order to determine their bioavailability, the effect of hypocalcemic peptides administered intranasally were compared with those administered by intravenous injection, as described below. Nasal powdery formulations containing 100 IU per 30 mg of dry powder were prepared substantially as described in U.S. Pat. No. 4,613,500. Peptides were administered intranasally at a dose of 2.8 IU/kg or intravenously at a dose of 1.75 IU/kg to rabbits. Blood samples were withdrawn before administering the peptides and 0.5, 1, 2, 4, and 6 hours after administration, and serum calcium levels determined. The ratios of areas under the curve of hypocalcemic effect (0 to 6 hours) after nasal and intravenous administration are calculated.

For data set [2], the system named is Male rats (Sprague Dawley). Nature of the data set: Hypocalcemic activity: serum Ca++ decrease in rats after subcutaneous injection. Format: in vivo. To be noted: rat serum. As to the method:
Calcitonins lower the blood calcium of immature rats by inhibiting bone resorption. Their potency can be assessed by determining the micrograms of peptide required to reduce the serum calcium by ten percent. The results of in vivo tests of the biological activities of synthetic calcitonin peptides of the invention are shown in Example 37.
This activity was measured as follows: Male rats (Sprague Dawley) weighing approximately 100 grams were fasted overnight. Peptides according to the invention, comprising various potency-enhancing modifications, were dissolved in pH 7.4 PBS buffer at a concentration range of 0.001 microgram to about 100 microgram per ml. The rats were anesthetized with Metophane10, weighed and injected subcutaneously with the peptide solutions in a dose of from 0.001 to about 100 microgram per kilogram of body weight. […] Calcium-lowering potencies of the synthetic peptides can be calculated in International units (IU) per mg as described by the method of M. Kumar et al., J. Endocrinology 33:469-475 (1964). According to this test, 10 IU is defined as the amount of peptide necessary for lowering Ca++ concentration by 10% in 100 gram rats one hour after subcutaneous injection. Serum Ca++ levels in the rat after subcutaneous injection of various peptides are summarized below: […]

As for `CC(C)C[C@H](NC(=O)[C@H](CC(C)C)NC(=O)[C@@H]1CCCCNC(=O)CCC(=O)N[C@@H](CO)C(=O)N[C@@H](CC(N)=O)C(=O)N[C@@H](CC(C)C)C(=O)N[C@@H](CO)C(=O)N[C@@H]([C@@H](C)O)C(=O)N1)C(=O)NCC(=O)N[C@@H](CCCCN)C(=O)N[C@@H](CC(C)C)C(=O)N[C@@H](CO)C(=O)N[C@@H](CCC(N)=O)C(=O)N[C@@H](CCC(=O)O)C(=O)N[C@@H](CC(C)C)C(=O)N[C@@H](Cc1c[nH]cn1)C(=O)N[C@@H](CCCCN)C(=O)N[C@@H](CC(C)C)C(=O)N[C@@H](CCC(N)=O)C(=O)N[C@H](C(=O)N[C@@H](Cc1ccc(O)cc1)C(=O)N1CCC[C@H]1C(=O)N[C@@H](CCCNC(=N)N)C(=O)N[C@H](C(=O)N[C@@H](CC(=O)O)C(=O)N[C@H](C(=O)NCC(=O)N[C@@H](C)C(=O)NCC(=O)N[C@H](C(=O)N1CCC[C@H]1C(N)=O)[C@@H](C)O)C(C)C)[C@@H](C)O)[C@@H](C)O` (SNLSTKLLGKLSQELHKLQTYPRTDVGAGTP-NH2; linker N-6 via Suc), in data set [1], the “Ratio of Nasal:i.v. Bioavailability” value stood at 14.3%.

`CC(C)C[C@H](NC(=O)[C@H](CC(C)C)NC(=O)[C@@H]1CSSC[C@H](N)C(=O)N[C@@H](CO)C(=O)N[C@@H](CC(N)=O)C(=O)N[C@@H](CC(C)C)C(=O)N[C@@H](CO)C(=O)N[C@@H]([C@@H](C)O)C(=O)N1)C(=O)NCC(=O)N[C@@H](CCCCN)C(=O)N[C@@H](CC(C)C)C(=O)N[C@@H](CO)C(=O)N[C@@H](CCC(N)=O)C(=O)N[C@@H](CCC(=O)O)C(=O)N[C@@H](CC(C)C)C(=O)N[C@@H](Cc1c[nH]cn1)C(=O)N[C@@H](CCCCN)C(=O)N[C@@H](CC(C)C)C(=O)N[C@@H](CCC(N)=O)C(=O)N[C@H](C(=O)N[C@@H](Cc1ccc(O)cc1)C(=O)N1CCC[C@H]1C(=O)N[C@@H](CCCNC(=N)N)C(=O)N[C@H](C(=O)N[C@@H](CC(=O)O)C(=O)N[C@H](C(=O)NCC(=O)N[C@@H](C)C(=O)NCC(=O)N[C@H](C(=O)N1CCC[C@H]1C(N)=O)[C@@H](C)O)C(C)C)[C@@H](C)O)[C@@H](C)O` [(Leu^8)-eCT] (H-CSNLSTCLLGKLSQELHKLQTYPRTDVGAGTP-NH2; disulfide 1-7): the “Ratio of Nasal:i.v. Bioavailability” value in data set [1] is recorded as 28.6%.

With `CC[C@H](C)[C@H](NC(=O)[C@H](C)NC(=O)[C@@H](NC(=O)[C@H](CCC(N)=O)NC(=O)[C@@H]1CCCN1C(=O)[C@H](Cc1ccccc1)NC(=O)[C@@H](NC(=O)[C@H](Cc1c[nH]cn1)NC(=O)[C@H](Cc1ccccc1)NC(=O)[C@H](CCCCN)NC(=O)[C@H](CC(N)=O)NC(=O)[C@H](CC(C)C)NC(=O)[C@H](CC(=O)O)NC(=O)[C@H](CCC(N)=O)NC(=O)[C@@H](NC(=O)[C@H](CC(C)C)NC(=O)[C@@H](NC(=O)CNC(=O)[C@H](CC(C)C)NC(=O)[C@H](CC(C)C)NC(=O)[C@@H]1CSSC[C@H](N)C(=O)NCC(=O)N[C@@H](CC(N)=O)C(=O)N[C@@H](CC(C)C)C(=O)N[C@@H](CO)C(=O)N[C@@H]([C@@H](C)O)C(=O)N1)[C@@H](C)O)[C@@H](C)O)[C@@H](C)O)[C@@H](C)O)C(=O)NCC(=O)N[C@H](C(=O)NCC(=O)N[C@@H](C)C(=O)N1CCC[C@H]1C(N)=O)C(C)C` [[Leu-8,12,16]-hCT, [Leu^8,12,16]-hCT] (H-CGNLSTCLLGTLTQDLNKFHTFPQTAIGVGAP-NH2; disulfide 1-7), in data set [1], the “Ratio of Nasal:i.v. Bioavailability” value was determined as 28.0%.

Regarding [(ADA-Ser)-5,Ala-7]-cCT(5-32), the “Ca++ Decrease” value in data set [2] (dose 1 ug/kg s.c., 1 hr) is 0.19 mg/dL; in data set [2] (dose 1 ug/kg s.c., 3 hr), 0.14 mg/dL; in data set [2] (dose 3 ug/kg s.c., 1 hr), 0.33 mg/dL; in data set [2] (dose 3 ug/kg s.c., 3 hr), 0.21 mg/dL; in data set [2] (dose 10 ug/kg s.c., 1 hr) it was 2.83 mg/dL; in data set [2] (dose 10 ug/kg s.c., 3 hr), 2.98 mg/dL. In addition, in data set [2] (dose 10 ug/kg s.c., 6 hr), the “Ca++ Decrease” value is 2.10 mg/dL.

Take [(Ac0AOA-SerThr)2 -Lys-7]-cCT(7-32): the “Ca++ Decrease” value in data set [2] (dose 0.1 ug/kg s.c., 1 hr) was 0.42 mg/dL; in data set [2] (dose 0.4 ug/kg s.c., 1 hr), 0.45 mg/dL; in data set [2] (dose 1 ug/kg s.c., 1 hr), 2.29 mg/dL; in data set [2] (dose 10 ug/kg s.c., 1 hr) it was 2.45 mg/dL; in data set [2] (dose 100 ug/kg s.c., 1 hr), 2.34 mg/dL.

In the case of “[(Chx-Ser)^5, Ala^7, des-^22 ]-Avian Calcitonin (5-32) [[(CHX-Ser)-5,Ala-7,des-22]-cCT(5-32)]”, the “Ca++ Decrease” value is 0.32 mg/dL in data set [2] (dose 1 ug/kg s.c., 1 hr); 1.42 mg/dL in data set [2] (dose 10 ug/kg s.c., 1 hr); 1.82 mg/dL in data set [2] (dose 100 ug/kg s.c., 1 hr).

For “[(Chx-Ser-Thr)2 -Lys^7, Leu^8 ]-Eel Calcitonin (7-32) [[(ChxSerThr)2 -Lys^7, Leu^8]-eCT(7-32)]”, the “Ca++ Decrease” value was 0.13 mg/dL in data set [2] (dose 0.01 ug/kg s.c., 1 hr); 0.24 mg/dL in data set [2] (dose 0.03 ug/kg s.c., 1 hr); 0.39 mg/dL in data set [2] (dose 0.1 ug/kg s.c., 1 hr); 1.09 mg/dL in data set [2] (dose 0.32 ug/kg s.c., 1 hr); 2.42 mg/dL in data set [2] (dose 1 ug/kg s.c., 1 hr). Further, the “Ratio of Nasal:i.v. Bioavailability” value in data set [1] is on record as 17.4%.

For “[(D-Ala-Ada-Ser)^5, Ala^7, des-^22 ]-Avian Calcitonin (5-32)”, the “Ca++ Decrease” value in data set [2] (dose 1 ug/kg s.c., 1 hr) is 0.32 mg/dL; in data set [2] (dose 10 ug/kg s.c., 1 hr), 1.42 mg/dL; in data set [2] (dose 100 ug/kg s.c., 1 hr), 1.82 mg/dL.

[(LeuCys)^1, Leu^8 ]-eCT: the “Ca++ Decrease” value in data set [2] (dose 0.03 ug/kg s.c., 1 hr) is 1.24 mg/dL; in data set [2] (dose 1 ug/kg s.c., 1 hr) it was 3.35 mg/dL. Moreover, the “Ratio of Nasal:i.v. Bioavailability” value in data set [1] is 37.5%.

With [(Oleyl-Ser)-5,Ala-7]-cCT(5-32), the “Ca++ Decrease” value in data set [2] (dose 1 ug/kg s.c., 1 hr) is 0.47 mg/dL; in data set [2] (dose 10 ug/kg s.c., 1 hr), 0.60 mg/dL; in data set [2] (dose 100 ug/kg s.c., 1 hr), 1.15 mg/dL.

For the compound [(SerThr)2 -Lys-7]-cCT(7-32), the “Ca++ Decrease” value in data set [2] (dose 1 ug/kg s.c., 1 hr) was 2.09 mg/dL; in data set [2] (dose 10 ug/kg s.c., 1 hr), 2.75 mg/dL; in data set [2] (dose 100 ug/kg s.c., 1 hr), 2.75 mg/dL.
